Drawing on patent US8957106B2, “Iminosugar treatment of tumors” (The Chancellor, Masters and Scholars of the University of …, priority 2007, dated 2015), this text covers IC50 for two compounds.

pIC50: −log10 of the molar value. Where two headings read alike, the source gives them in different places.

In general, pIC50 refers to −log10 of the IC50, conventionally taken in molar units.

The conditions of assay [1]: read-out: IC50 doses reported by other in vitro studies, cited from earlier work.
For another assay, the system named is B16F10 melanoma cells. As to the kind of experiment: MTS cell viability assay, B16F10. The class given is cell-based, murine. As to conditions: Mus musculus, B16-F10, B16F10, 24 h, read-out: IC50. Here is the method: (§1) Cells were cultured at indicated densities for 24 h, medium was removed and the incubation was continued in a fresh culture medium containing various GC2 or DTIC concentrations. In control experiments, cells were grown in a culture medium containing GC2 buffer.
(§2) The standard […] (MTS)-3-(4,5-dimethylthiazol-2-yl)-5-(3-carboxymethoxyphenyl)-2-(4-sulphophenyl)-2H-tetrazolium inner salt solution assay was performed in order to examine the cytotoxic/cytostatic effect of GC2 on melanoma cells. Briefly, 7.5×10^3 cells were seeded in 96-well microtiter plates (Nunc). After an overnight incubation, serial dilutions of GC2 or DTIC were added in triplicate to a final volume of 100 μl. The blank was represented by a culture medium without cells containing the highest GC2 or DTIC concentration. After 24 h of incubation 20 μl MTS was added to each well and all samples were incubated for 3 h at 37° C. An absorbance of each well was read at 450 nm in a microplate reader. A percentage of cell viability was calculated considering that 100% cell viability was represented by an absorbance of untreated samples […]. Alternatively, the number of viable cells was determined by Trypan blue exclusion test. Melanoma cells treated with GC2 were trypsinized and cells negative for blue staining (viable cells) were counted using a hemocytometer. […]

A further assay deals with MNT-1 melanoma cells. As to the kind of experiment: MTS cell viability assay, MNT-1. The assay is classed as cell-based. As to conditions: Homo sapiens, MNT-1, 24 h, read-out: IC50. Here is the method:
as §1, §2
In general terms: Tetrazolium assays rely on reduction of a dye to a coloured formazan, in cell work by metabolically active cells.

The subject of the next assay is SKMel28 melanoma cells. As to the kind of experiment: MTS cell viability assay, SKMel28. The assay is classed as cell-based. The following applies: Homo sapiens, SK-MEL-28, SKMel28, 24 h, read-out: IC50. On the procedure:
as §1, §2

A further assay concerns MelJuSo melanoma cells. As to the kind of experiment: MTS cell viability assay, MelJuSo. The assay is classed as cell-based. As to conditions: Homo sapiens, MEL-JUSO, 24 h, read-out: IC50. On the procedure: as §1, §2
The subject of another assay is B16D2 melanoma cells. As to the kind of experiment: MTS cell viability assay, B16D2. The assay is classed as cell-based. The following applies: B16D2, 24 h, read-out: IC50. On the procedure:
as §1, §2

`CCCCCCCCCCCCC/C=C/[C@@H](O)[C@H](CO)NC(C)=O` [C2-ceramide]: the pIC50 in assay [1] (literature data) is 4.00.

In the case of `CN(C)N=Nc1[nH]cnc1C(N)=O` [DTIC, 5-(3,3-dimethyl-1-triazeno)-imidazole-4-carboxamide, reference compound], the pIC50 in the assay on B16F10 melanoma cells was 2.40 to 2.52; with MNT-1 melanoma cells, 2.40 to 2.52; in assay [1] (literature data (Lev et al. 2004)), 3.00; with SKMel28 melanoma cells it was 2.40 to 2.52; in the assay with MelJuSo melanoma cells, 2.40 to 2.52; in the assay with B16D2 melanoma cells, 2.40 to 2.52.
